Test results reported in article PMC8027839 (Scientific Reports, 2021).
“Also recorded” adds a separate entry of the source.

Columns and labels:
AcpA = AcpA (Francisella tularensis subsp. novicida, UniProt A0Q436); assay: biochemical; conditions: 1 mM; read-out: inhibition of enzymatic activity of AcpA
MptpA = MptpA (Mycobacterium tuberculosis, UniProt P9WIA1); assay: biochemical; conditions: pNPP assay, pH 6
M. bovis BCG ΔsapM = format: cell-based; conditions: 40 µM
Mtb H37Rv strain = assay: Mycobacterium tuberculosis infection assay in THP-1 macrophages; format: cell-based; conditions: resting THP-1 macrophages; 1 µM and 40 µM; 24 h and 72 h post infection
[1] = Compound precipitation in enzyme assays; format: physicochemical; conditions: AcpA Malachite Green assay
[2] = system: Francisella tularensis live vaccine strain (LVS); format: cell-based; conditions: MH-S macrophages; 40 μM; 24 h post infection
F. tularensis = format: cell-based, Francisella tularensis; conditions: 40 µM; 24 h
SapM [3] = target: T1, SapM (Mycobacterium tuberculosis, UniProt O53361); assay: Microscale thermophoresis of SapM binding
T1 construct: made in house; host or cells: Escherichia coli C41 (DE3)
T1 sequence (O53361 44-299): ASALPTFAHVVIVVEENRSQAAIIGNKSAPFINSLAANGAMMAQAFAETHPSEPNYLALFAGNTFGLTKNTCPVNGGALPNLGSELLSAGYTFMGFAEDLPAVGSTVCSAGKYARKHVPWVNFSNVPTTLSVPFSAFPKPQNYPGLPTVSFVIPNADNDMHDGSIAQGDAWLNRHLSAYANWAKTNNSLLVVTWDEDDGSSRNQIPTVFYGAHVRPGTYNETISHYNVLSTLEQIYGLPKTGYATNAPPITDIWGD
Method: Microscale thermophoresis (MST) was used to study the direct binding interaction of SapM with three compounds 1, 2 and 13. SapM was labelled with NTA-647nm dye which attaches to the 6-histidine tag. 100 nM NTA-647 was incubated with 200 nM SapM for 1-hour at 4 °C and then centrifuged at 20,000 rcf for 20 minutes at 4 °C in 20 mM HEPES, 200 mM NaCl pH 7.0. 10 mM compound was diluted to 500 μM in the same buffer. Binding checks were carried out with labelled SapM (5 nM) with and without 250 nM compound with LED power of 20% and a medium MST power in a Monolith Pico instrument and using standard capillaries. Binding analysis was performed with a doubling serial dilution from 250 nM with 16 dilutions and a constant concentration of 5 nM labelled SapM.

[4] = MTT cytotoxicity assay, MH-S; conditions: mouse, MH-S cells (SV40-transformed alveolar macrophage cell line)
MptpB = MptpB (Mycobacterium tuberculosis, UniProt I6WXK4); assay: biochemical; conditions: pNPP assay, pH 6
Chain of MptpB (I6WXK4 whole entry, looked up): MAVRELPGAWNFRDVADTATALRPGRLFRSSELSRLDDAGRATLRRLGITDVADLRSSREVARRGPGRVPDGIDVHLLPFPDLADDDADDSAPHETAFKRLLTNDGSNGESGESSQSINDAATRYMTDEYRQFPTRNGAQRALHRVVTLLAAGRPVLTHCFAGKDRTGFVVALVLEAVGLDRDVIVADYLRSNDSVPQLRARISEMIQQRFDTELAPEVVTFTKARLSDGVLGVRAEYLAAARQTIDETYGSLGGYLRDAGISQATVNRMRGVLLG

M. bovis BCG wild-type = format: cell-based; conditions: Raw 264.7 macrophages; 40 µM; 72 h post-infection; vs DMSO
SapM [5] = target: T1, SapM; assay: Type of inhibition of SapM, Lineweaver-Burk plots; format: biochemical
From the text: To determine the type of inhibition different inhibitor concentrations were selected to yield around 30% and 75% inhibition for each concentration of pNPP. This ensures sufficient signal to obtain accurate data while allowing a significant inhibition effect. Velocity (V) was plotted as a function of pNPP concentration and fit in a Lineweaver–Burk plot (double-reciprocal) using GraphPad Prism 8.41. All assays were done in 96-well microplates and performed in triplicate in at least two independent experiments.

SapM [6] = target: T1, SapM; assay: biochemical; format: biochemical

Chain of AcpA (A0Q436 21-514 limits assumed): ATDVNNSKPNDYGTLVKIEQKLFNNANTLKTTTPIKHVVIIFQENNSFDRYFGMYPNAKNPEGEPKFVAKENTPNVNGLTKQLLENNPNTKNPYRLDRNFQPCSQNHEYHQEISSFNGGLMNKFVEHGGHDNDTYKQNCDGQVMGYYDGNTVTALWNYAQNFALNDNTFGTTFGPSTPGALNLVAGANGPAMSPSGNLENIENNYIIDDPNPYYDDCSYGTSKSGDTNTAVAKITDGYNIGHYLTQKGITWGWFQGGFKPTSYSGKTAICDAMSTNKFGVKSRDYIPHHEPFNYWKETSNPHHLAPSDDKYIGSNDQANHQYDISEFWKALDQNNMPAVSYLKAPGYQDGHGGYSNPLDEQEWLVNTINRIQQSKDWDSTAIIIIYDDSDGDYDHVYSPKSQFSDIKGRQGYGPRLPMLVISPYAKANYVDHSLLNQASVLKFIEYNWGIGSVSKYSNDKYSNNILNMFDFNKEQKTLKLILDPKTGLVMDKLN
Chain of MptpA (P9WIA1 whole entry): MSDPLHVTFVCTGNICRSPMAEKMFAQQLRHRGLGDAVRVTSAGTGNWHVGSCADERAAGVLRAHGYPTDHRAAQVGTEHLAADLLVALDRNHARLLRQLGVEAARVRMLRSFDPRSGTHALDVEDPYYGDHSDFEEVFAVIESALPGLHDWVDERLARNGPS

## N#CC(C#N)=C(N)/C(C#N)=C/c1cc(O)c(O)c(O)c1 [Compound 1, Tyrphostin 51]
AcpA
  inhibition at 1000 µM: ~30%
MptpA
  IC50: 19.8 ± 1 µM
M. bovis BCG ΔsapM
  intracellular burden of ΔsapM: did not further reduce the intracellular burden
Mtb H37Rv strain
  Mtb intracellular burden vs DMSO control: significant (****p < 0.0001) reduction
[1]
  concentration at which compound precipitates: ≥ 2000 µM
[2]
  reduction of F. tularensis intracellular burden: 55%
F. tularensis
  acellular growth of F. tularensis: does not affect acellular growth
SapM [3]
  binding to SapM by MST: confirmed
SapM [3]; Bivalent fit EC50 (1), MST titration, tighter binding mode
  EC50: 0.52 µM
[4]
  viability at 24 h: > 70%
MptpB
  IC50: > 100 µM
M. bovis BCG wild-type
  intracellular burden of wild-type M. bovis BCG: reduced the intracellular burden
SapM [5]
  mechanism of inhibition of SapM: uncompetitive inhibitors
SapM [6]; 0.5 h, compounds at 100 µM, relative to pNPP DMSO control, read-out: %SA (percentage specific activity of SapM)
  remaining activity at 100 µM: 0%
SapM [6]; compounds at 100 µM
  effect on SapM enzyme activity: completely abolished the enzymatic activity; also recorded: abolished enzyme activity completely
SapM [6]; pNPP assay, dose-response
  IC50: 6.3 ± 1 µM
